Laboratory results from patent US20240228488A1 (TAKEDA PHARMACEUTICAL COMPANY LIMITED, priority 2021, published 2024).

What was measured:
plasma kallikrein = molecular target: T1, plasma kallikrein (Homo sapiens, UniProt P03952); assay: Neat human plasma assay, FXIIa contact pathway-activated, PFR-AMC substrate; assay type: biochemical; details: citrated human plasma 78% final, 10 nM human FXIIa, 100 μM PFR-AMC; read-out: Human Plasma Assay: IC90
T1 construct: from tissue
How it was run: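 Compound inhibition of plasma kallikrein measured as PFR-AMC (100 μM) cleavage rate over 5 min at room temperature in 78% citrated human plasma activated with 10 nM FXIIa (Tris pH 7.5 buffer). IC50/IC90 from 4-parameter fit of rate versus inhibitor concentration.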

[1] = molecular target: human activated kallikrein enzyme (Homo sapiens, UniProt P03952); assay: Plasma kallikrein inhibition, fluorogenic PFR-AMC substrate, 500 pM activated kallikrein format; assay type: biochemical; details: 500 pM activated kallikrein, 300 uM PFR-AMC, 30 min preincubation, 10 min reaction; read-out: Primary Dose Response Assay: Average EC50
How it was run: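 Fluorescence (ex 380/em 460 nm) is read after 10 min of 300 uM PFR-AMC turnover by 500 pM enzyme at RT. Compounds sit with enzyme for 30 min beforehand. Buffer is Tris (pH 7.5) with EDTA, NaCl, PEG-400 and Triton X-100; EC50 values are banded.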

Chain of human activated kallikrein enzyme (P03952 391-638 limits assumed): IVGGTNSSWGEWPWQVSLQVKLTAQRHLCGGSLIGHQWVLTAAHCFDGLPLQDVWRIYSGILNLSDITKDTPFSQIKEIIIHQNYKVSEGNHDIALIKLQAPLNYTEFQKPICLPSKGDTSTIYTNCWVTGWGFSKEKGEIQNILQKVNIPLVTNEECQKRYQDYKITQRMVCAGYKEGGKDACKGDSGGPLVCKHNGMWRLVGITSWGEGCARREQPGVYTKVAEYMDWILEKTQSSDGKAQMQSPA
Chain of human activated kallikrein enzyme (P03952 20-390 partner limits assumed): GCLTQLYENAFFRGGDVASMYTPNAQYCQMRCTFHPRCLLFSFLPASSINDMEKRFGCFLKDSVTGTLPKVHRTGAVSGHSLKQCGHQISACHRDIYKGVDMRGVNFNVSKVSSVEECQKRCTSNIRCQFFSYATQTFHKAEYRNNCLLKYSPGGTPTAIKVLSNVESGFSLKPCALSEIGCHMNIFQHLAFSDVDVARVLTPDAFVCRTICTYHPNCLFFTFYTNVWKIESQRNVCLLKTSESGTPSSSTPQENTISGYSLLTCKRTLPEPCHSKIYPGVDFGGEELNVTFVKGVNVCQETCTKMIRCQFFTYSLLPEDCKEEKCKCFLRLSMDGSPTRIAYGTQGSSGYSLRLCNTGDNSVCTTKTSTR
T1 sequence (P03952 391-638 limits assumed): as the sequence (P03952 391-638 limits assumed) above
T1 sequence (P03952 20-390 partner limits assumed): as the sequence (P03952 20-390 partner limits assumed) above

IC90 (plasma kallikrein)	EC50 [1]	SMILES
1500 to 10000 nM	1 to 10 nM	CCOC(=O)CCc1cc(C2CC2)cn2cc(CNc3ccnc(NC(=O)[C@H]4C[C@@H]4c4cccc(Cl)c4)c3)nc12 [Example I-240, ethyl 3-(2-(((2-((1S,2S)-2-(3-chlorophenyl)cyclopropane-1-carboxamido)pyridin-4-yl)amino)methyl)-6-cyclopropylimidazo[1,2-a]pyridin-8-yl)propanoate]
1500 to 10000 nM	1 to 10 nM	O=C(Nc1cc(NCc2cn3cc(C4CC4)cc(C4(O)COC4)c3n2)ncn1)[C@H]1C[C@@H]1c1cccc(Cl)c1 (racemic) [Example 63, rac-(1S*,2S*)-2-(3-chlorophenyl)-N-(6-(((6-cyclopropyl-8-(3-hydroxyoxetan-3-yl)imidazo[1,2-α]pyridin-2-yl)methyl)amino)pyrimidin-4-yl)cyclopropane-1-carboxamide]
1500 to 10000 nM	< 1 nM	Cc1ccnc([C@H]2C[C@@H]2C(=O)Nc2cc(NC(C)c3cn4cc(C5CC5)cc(S(C)(=O)=O)c4n3)nc(C)n2)n1 (stereo partly drawn) [Example 363, (1S,2S)-N-(6-((1-(6-cyclopropyl-8-(methylsulfonyl)imidazo[1,2-a]pyridin-2-yl)ethyl)amino)-2-methylpyrimidin-4-yl)-2-(4-methylpyrimidin-2-yl)cyclopropane-1-carboxamide]
400 to 1500 nM	< 1 nM	Cc1ccnc([C@H]2C[C@@H]2C(=O)Nc2cc(N[C@H](C)c3cn4cc(C5CC5)cc(N5CC(=O)N(C)C5=O)c4n3)ncn2)n1 (single isomer, unassigned) [Example 451]
1500 to 10000 nM	1 to 10 nM	Cc1ccnc([C@H]2C[C@@H]2C(=O)Nc2cc(N3C[C@@H](O)C[C@@H]3c3cn4cc([C@H]5C[C@@H]5C)ccc4n3)ncn2)n1 (relative stereo) [Example 470, (1S,2S)-N-(6-((2R,4S)-4-hydroxy-2-(6-((1S*,2S*)-2-methylcyclopropyl)imidazo[1,2-a]pyridin-2-yl)pyrrolidin-1-yl)pyrimidin-4-yl)-2-(4-methylpyrimidin-2-yl)cyclopropane-1-carboxamide]
400 to 1500 nM	< 1 nM	Cc1ccnc([C@H]2C[C@@H]2C(=O)Nc2cc(NCc3nc4c(N5CC(=O)N(C)C5=O)cc(C5CC5)cn4c3F)ncn2)n1 [Example 379, (1S,2S)-N-(6-(((6-cyclopropyl-3-fluoro-8-(3-methyl-2,4-dioxoimidazolidin-1-yl)imidazo[1,2-a]pyridin-2-yl)methyl)amino)pyrimidin-4-yl)-2-(4-methylpyrimidin-2-yl)cyclopropane-1-carboxamide]
< 400 nM	100 to 1000 nM	O=C(Nc1cc(NCc2cn3cc(C4CC4)ccc3n2)ncn1)[C@H]1C[C@@H]1c1cc(Cl)ccc1Cl (racemic) [Example 49, rac-(1S*,2S*)-N-(6-(((6-cyclopropylimidazo[1,2-a]pyridin-2-yl)methyl)amino)pyrimidin-4-yl)-2-(2,5-dichlorophenyl)cyclopropane-1-carboxamide]
400 to 1500 nM	< 1 nM	COCc1nc(NC(=O)[C@H]2C[C@@H]2c2nccc(C)n2)cc(OCc2cn3cc(C4CC4)cc(N4CC(=O)N(C)C4=O)c3n2)n1 [Example 551, (1S,2S)-N-(6-((6-cyclopropyl-8-(3-methyl-2,4-dioxoimidazolidin-1-yl)imidazo[1,2-a]pyridin-2-yl)methoxy)-2-(methoxymethyl)pyrimidin-4-yl)-2-(4-methylpyrimidin-2-yl)cyclopropane-1-carboxamide]
1500 to 10000 nM	< 1 nM	COC(=O)CCc1cc(C2CC2)cn2cc(CNc3ccnc(NC(=O)[C@H]4C[C@@H]4c4cccc(Cl)c4)c3)nc12 [Example I-239, methyl 3-(2-(((2-((1S,2S)-2-(3-chlorophenyl)cyclopropane-1-carboxamido)pyridin-4-yl)amino)methyl)-6-cyclopropylimidazo[1,2-a]pyridin-8-yl)propanoate]
1500 to 10000 nM	1 to 10 nM	CN1CCC(Oc2cc(C3CC3)cn3cc(CNc4cc(NC(=O)[C@H]5C[C@@H]5c5cccc(Cl)c5)ncn4)nc23)C1=O (stereo partly drawn) [Example I-147, (1S,2S)-2-(3-chlorophenyl)-N-(6-(((6-cyclopropyl-8-((1-methyl-2-oxopyrrolidin-3-yl)oxy)imidazo[1,2-a]pyridin-2-yl)methyl)amino)pyrimidin-4-yl)cyclopropane-1-carboxamide]
400 to 1500 nM	< 1 nM	O=C1CN(c2cc(C3CC3)cn3cc(CNc4cc(NC(=O)[C@H]5C[C@@H]5c5cccc(Cl)c5)ncn4)nc23)C(=O)N1 [Example 396, (1S,2S)-2-(3-chlorophenyl)-N-(6-(((6-cyclopropyl-8-(2,4-dioxoimidazolidin-1-yl)imidazo[1,2-a]pyridin-2-yl)methyl)amino)pyrimidin-4-yl)cyclopropane-1-carboxamide]
< 400 nM	< 1 nM	Cc1cc(N2CC(=O)N(C)C2=O)c2nc([C@@H](C)Nc3cc(NC(=O)[C@H]4C[C@@H]4c4nccc(C)n4)ncn3)cn2c1 [Example 423, (1S,2S)-N-(6-(((R)-1-(6-methyl-8-(3-methyl-2,4-dioxoimidazolidin-1-yl)imidazo[1,2-a]pyridin-2-yl)ethyl)amino)pyrimidin-4-yl)-2-(4-methylpyrimidin-2-yl)cyclopropane-1-carboxamide]
400 to 1500 nM	< 1 nM	CNC1CCN(c2cc(C3CC3)cn3cc(CNc4cc(NC(=O)[C@H]5C[C@@H]5c5cccc(Cl)c5)ncn4)nc23)C1 (stereo partly drawn) [Example I-16, (1S,2S)-2-(3-chlorophenyl)-N-(6-(((6-cyclopropyl-8-(3-(methylamino)pyrrolidin-1-yl)imidazo[1,2-a]pyridin-2-yl)methyl)amino)pyrimidin-4-yl)cyclopropane-1-carboxamide]
< 400 nM	< 1 nM	CN(C)CCc1cc(C2CC2)cn2cc(CNc3ccnc(NC(=O)[C@H]4C[C@@H]4c4cccc(Cl)c4)c3)nc12 [Example 598, (1S,2S)-2-(3-chlorophenyl)-N-(4-(((6-cyclopropyl-8-(2-(dimethylamino)ethyl)imidazo[1,2-a]pyridin-2-yl)methyl)amino)pyridin-2-yl)cyclopropane-1-carboxamide]
< 400 nM	< 1 nM	O=C(O)CN1CCN(c2cc(C3CC3)cn3cc(CNc4ccnc(NC(=O)[C@H]5C[C@@H]5c5cccc(Cl)c5)c4)nc23)CC1 [Example 602, 2-(4-(2-(((2-((1S,2S)-2-(3-chlorophenyl)cyclopropane-1-carboxamido)pyridin-4-yl)amino)methyl)-6-cyclopropylimidazo[1,2-a]pyridin-8-yl)piperazin-1-yl)acetic acid]
400 to 1500 nM	< 1 nM	CN1CCC(F)(c2cc(C3CC3)cn3cc(CNc4cc(NC(=O)[C@H]5C[C@@H]5c5cccc(Cl)c5)ncn4)nc23)CC1 [Example 403, (1S,2S)-2-(3-chlorophenyl)-N-(6-(((6-cyclopropyl-8-(4-fluoro-1-methylpiperidin-4-yl)imidazo[1,2-a]pyridin-2-yl)methyl)amino)pyrimidin-4-yl)cyclopropane-1-carboxamide]
400 to 1500 nM	< 1 nM	Cc1ccnc([C@H]2C[C@@H]2C(=O)Nc2cc(NCc3cn4cc(C5CC5)cc(N5CC(=O)N(C)C5=O)c4n3)nc(C3(O)COC3)n2)n1 (racemic) [Example 113, rac-(1S*,2S*)—N-(6-(((6-cyclopropyl-8-(3-methyl-2,4-dioxoimidazolidin-1-yl)imidazo[1,2-a]pyridin-2-yl)methyl)amino)-2-(3-hydroxyoxetan-3-yl)pyrimidin-4-yl)-2-(4-methylpyrimidin-2-yl)cyclopropane-1-carboxamide]
1500 to 10000 nM	1 to 10 nM	O=C(Nc1ncnc(NCc2cn3cc(C4CC4)ccc3n2)n1)[C@H]1C[C@@H]1c1cccc(Cl)c1 (racemic) [Example 344, (rac-(1S*,2S*))-2-(3-chlorophenyl)-N-(4-(((6-cyclopropylimidazo[1,2-a]pyridin-2-yl)methyl)amino)-1,3,5-triazin-2-yl)cyclopropane-1-carboxamide]
1500 to 10000 nM	< 1 nM	O=C(Nc1cc(NCc2cn3cc(C4CC4)cc(N4CCSCC4=O)c3n2)ncn1)[C@H]1C[C@@H]1c1cccc(Cl)c1 [Example I-155, (1S,2S)-2-(3-chlorophenyl)-N-(6-(((6-cyclopropyl-8-(3-oxothiomorpholino)imidazo[1,2-a]pyridin-2-yl)methyl)amino)pyrimidin-4-yl)cyclopropane-1-carboxamide]
10000 to 48000 nM	1 to 10 nM	N#CCCc1cc(C2CC2)cn2cc(COc3ccnc(NC(=O)[C@H]4C[C@@H]4c4cccc(Cl)c4)c3)nc12 (racemic) [Example 566, rac-(1S*,2S*)-2-(3-chlorophenyl)-N-(4-((8-(2-cyanoethyl)-6-cyclopropylimidazo[1,2-a]pyridin-2-yl)methoxy)pyridin-2-yl)cyclopropane-1-carboxamide]
< 400 nM	< 1 nM	Cc1ccnc([C@H]2C[C@@H]2C(=O)Nc2cc(N(C)Cc3cn4cc(C5CC5)cc(N5CC(=O)N(CCO)C5=O)c4n3)ncn2)n1 [Example 462, (1S,2S)-N-(6-(((6-cyclopropyl-8-(3-(2-hydroxyethyl)-2,4-dioxoimidazolidin-1-yl)imidazo[1,2-a]pyridin-2-yl)methyl)(methyl)amino)pyrimidin-4-yl)-2-(4-methylpyrimidin-2-yl)cyclopropane-1-carboxamide]
